Test results reported in patent publication US20050080113A1, “Medicinal compositions” (priority 2001, published 2005).

Row | melting point | SMILES
1 | 98 to 99 °C | CSCCc1nc(-c2cccc(C)c2)c(-c2ccnc(N)c2)s1 [H 99-1, 4 [4 (3 methylphenyl)-2 [2-(methylthio)ethyl]-1,3 thiazol-5 yl]-2 pyridylamine]
2 | 89 to 91 °C | Cc1cccc(-c2nc(C(C)OC(=O)c3ccccc3)sc2-c2ccnc(N)c2)c1 (centres unmarked) [H 99-2, 1 [5 (2 amino-4 pyridyl)-4-(3 methylphenyl)-1,3 thiazol-2 yl]ethyl benzoate]
3 | 96 to 97 °C | CSCCc1nc(-c2cccc(Cl)c2)c(-c2ccnc(N)c2)s1 [H 100-1, 4 [4 (3 chlorophenyl)-2-[2 (methylthio)ethyl]-1,3 thiazol-5 yl]-2 pyridylamine]
4 | 111 to 112 °C | CSCc1nc(-c2cccc(Cl)c2)c(-c2ccnc(N)c2)s1 [H 101-1, 4 [4 (3 chlorophenyl)-2-(methylthio)methyl-1,3 thiazol-5 yl]-2 pyridylamine]
5 | 131 to 132 °C | CC(F)(F)c1nc(-c2cccc(Cl)c2)c(-c2ccnc(N)c2)s1 [H 101-2, 4 [4 (3 chlorophenyl)-2-(1,1 difluoroethyl)-1,3 thiazol-5 yl]-2 pyridylamine]
6 | 85 to 86 °C | CCC(=O)Nc1cc(-c2sc(CCSC)nc2-c2cccc(C)c2)ccn1 [H 102-1, N-[4 [4 (3 methylphenyl)-2 [2 (methylthio)ethyl]-1,3 thiazol-5 yl]-2-pyridyl]propionamide]
7 | 91 to 92 °C | CCC(=O)Nc1cc(-c2sc(CCSC)nc2-c2cccc(Cl)c2)ccn1 [H 102-2, N-[4 [4 (3 chlorophenyl)-2 [2 (methylthio)ethyl]-1,3 thiazol-5 yl]-2-pyridyl]propionamide]
8 | 118 to 119 °C | CCC(=O)Nc1cc(-c2sc(CSC)nc2-c2cccc(Cl)c2)ccn1 [H 102-3, N-[4 [4 (3 chlorophenyl)-2 (methylthio)methyl-1,3 thiazol-5 yl]-2 pyridyl]propionamide]
9 | 141 to 142 °C | CCC(=O)Nc1cc(-c2sc(C(C)(F)F)nc2-c2cccc(Cl)c2)ccn1 [H 102-4, N-[4 [4 (3 chlorophenyl)-2 (1,1 difluoroethyl)-1,3 thiazol-5 yl]-2 pyridyl]propionamide]
10 | 102 to 103 °C | CCC(=O)Nc1cc(-c2sc(C(C)OC(=O)c3ccccc3)nc2-c2cccc(C)c2)ccn1 (centres unmarked) [H 102-5, 1 [4 (3 methylphenyl)-5-(2 propionylamino-4 pyridyl)-1,3 thiazol-2 yl]ethyl benzoate]
11 | 124 to 127 °C | CCC(=O)Nc1cc(-c2sc(C(C)OC(=O)c3ccccc3)nc2-c2cccc(Cl)c2)ccn1 (centres unmarked) [H 102-6, 1 [4 (3 chlorophenyl)-5-(2 propionylamino-4 pyridyl)-1,3 thiazol-2 yl]ethyl benzoate]
12 | 152 to 154 °C | CC(=O)Nc1cc(-c2sc(C(C)OC(=O)c3ccccc3)nc2-c2cccc(Cl)c2)ccn1 (centres unmarked) [H 103-1, 1 [5 (2 acetylamino-4-pyridyl)-4 (3 chlorophenyl)-1,3 thiazol-2 yl]ethyl benzoate]
13 | 99 to 100 °C | CCOC(=O)Cc1nc(-c2cccc(Cl)c2)c(-c2ccnc(NC(C)=O)c2)s1 [H 103-2, ethyl [5 (2 acetylamino-4-pyridyl)-4 (3 chlorophenyl)-1,3 thiazol-2 yl]acetate]
14 | 115 to 116 °C | CCC(=O)Nc1cc(-c2sc(C(C)O)nc2-c2cccc(C)c2)ccn1 (centres unmarked) [H 104, N-[4 [2 (1 hydroxyethyl)-4 (3 methylphenyl)-1,3 thiazol-5 yl]-2 pyridyl]propionamide]
15 | 131 to 132 °C | CCC(=O)Nc1cc(-c2sc(C(C)O)nc2-c2cccc(Cl)c2)ccn1 (centres unmarked) [H 105, N-[4 [4 (3 chlorophenyl)-2-(1 hydroxyethyl)-1,3 thiazol-5 yl]-2 pyridyl]propionamide]
16 | 121 to 123 °C | CCC(=O)Nc1cc(-c2sc(C(C)=O)nc2-c2cccc(C)c2)ccn1 [H 106, N-[4 [2 acetyl-4 (3 methylphenyl)-1,3 thiazol-5 yl]-2-pyridyl]propionamide]
17 | 115 to 117 °C | CCC(=O)Nc1cc(-c2sc(C(C)=O)nc2-c2cccc(Cl)c2)ccn1 [H 107, N-[4 [2 acetyl-4 (3-chlorophenyl)-1,3 thiazol-5 yl]-2 pyridyl]propionamide]
18 | 160 to 162 °C | CCNC(=O)Nc1cc(-c2sc(CC)nc2-c2cccc(C)c2)ccn1 [H 108, N-ethyl-N′-[4 [2 ethyl-4 (3 methylphenyl)-1,3 thiazol-5 yl]-2-pyridyl]urea]
19 | 177 to 180 °C | CCNC(=O)Nc1cc(-c2sc(CC)nc2-c2cccc(Cl)c2)ccn1 [H 109, N-[4 [4 (3 chlorophenyl)-2-ethyl-1,3 thiazol-5 yl]-2 pyridyl]-N′-ethyl-urea]
20 | 110 to 113 °C | CC(=O)Nc1cc(-c2sc(C(C)OC(=O)c3ccccc3)nc2-c2cccc(C)c2)ccn1 (centres unmarked) [H 110, 1 [5 (2 acetylamino-4-pyridyl)-4 (3 methylphenyl)-1,3 thiazol-2 yl]ethyl benzoate]
21 | 99 to 102 °C | CC(=O)Nc1cc(-c2sc(C(C)O)nc2-c2cccc(C)c2)ccn1 (centres unmarked) [H 111-1, N-[4 [2 (1 hydroxyethyl)-4-(3 methylphenyl)-1,3 thiazol-5 yl]-2 pyridyl]acetamide]

Row | melting point | SMILES
22 | 142 to 145 °C | CC(=O)Nc1cc(-c2sc(C(C)O)nc2-c2cccc(Cl)c2)ccn1 (centres unmarked) [H 111-2, N-[4 [4 (3 chlorophenyl)-2-(1 hydroxyethyl)-1,3 thiazol-5 yl]-2 pyridyl]acetamide]
23 | 180 to 183 °C | CC(=O)Nc1cc(-c2sc(C(C)=O)nc2-c2cccc(Cl)c2)ccn1 [H 112, N-[4 [2 acetyl-4 (3-chlorophenyl)-1,3 thiazol-5 yl]-2 pyridyl]acetamide]
24 | 113 to 114 °C | CSCc1nc(-c2cccc(C)c2)c(-c2ccnc(N)c2)s1 [H 113-1, 4 [4 (3 methylphenyl)-2-(methylthio)methyl-1,3 thiazol-5 yl]-2 pyridylamine]
25 | 140 to 141 °C | Cc1cccc(-c2nc(C(C)(F)F)sc2-c2ccnc(N)c2)c1 [H 113-2, 4 [2 (1,1 difluoroethyl)-4 (3 methylphenyl)-1,3 thiazol-5 yl]-2 pyridylamine]
26 | 99 to 101 °C | CCc1nc(-c2cccc(C)c2)c(-c2ccnc(NC(=O)c3ccsc3)c2)s1 [L 39-1, N-[4 [2 ethyl-4 (3-methylphenyl)-1,3 thiazol-5 yl]-2 pyridyl]-3-thiophenecarboxamide]
27 | 124 to 125 °C | CCc1nc(-c2cccc(C)c2)c(-c2ccnc(NC(=O)c3ccc(OC)cc3)c2)s1 [L 39-2, N-[4 [2 ethyl-4 (3-methylphenyl)-1,3 thiazol-5 yl]-2 pyridyl]-4 methoxybenzamide]
28 | 105 to 106 °C | CCc1nc(-c2cccc(C)c2)c(-c2ccnc(NC(=O)c3ccc(C)cc3)c2)s1 [L 39-3, N-[4 [2 ethyl-4 (3-methylphenyl)-1,3 thiazol-5 yl]-2 pyridyl]-4 methylbenzamide]
29 | 101 to 102 °C | CCc1nc(-c2cccc(C)c2)c(-c2ccnc(NC(=O)c3cccc(F)c3)c2)s1 [L 39-4, N-[4 [2 ethyl-4 (3-methylphenyl)-1,3 thiazol-5 yl]-2 pyridyl]-3 fluorobenzamide]
30 | 110 to 111 °C | CCc1nc(-c2cccc(C)c2)c(-c2ccnc(NC(=O)c3ccc(F)cc3)c2)s1 [L 39-5, N-[4 [2 ethyl-4 (3-methylphenyl)-1,3 thiazol-5 yl]-2 pyridyl]-4 fluorobenzamide]
31 | 77 to 78 °C | CCc1nc(-c2cccc(C)c2)c(-c2ccnc(NC(=O)c3cc(Cl)cc(Cl)c3)c2)s1 [L 39-6, 3,5 dichloro-N-[4 [2 ethyl-4 (3 methylphenyl)-1,3 thiazol-5 yl]-2 pyridyl]benzamide]
32 | 151 to 152 °C | Cc1cccc(-c2nc(C3CCN(C)CC3)sc2-c2ccnc(NC(=O)c3ccccc3)c2)c1 [L 44, N-[4 [4 (3 methylphenyl)-2 (1 methylpiperidin-4 yl)-1,3-thiazol-5 yl]-2 pyridyl]benzamide]
33 | 150 to 151 °C | Cc1cccc(-c2nc(N(C)C(=O)c3cccnc3)sc2-c2ccnc(NC3CCCC3)c2)c1 [L 65-3, N-methyl-N-[5 (2-cyclopentylamino-4 pyridyl)-4 (3 methylphenyl)-1,3 thiazol-2-yl]nicotinamide]
34 | 135 to 136 °C | Cc1cccc(-c2nc(N(C)C(=O)c3cccnc3)sc2-c2ccnc(NC3CCCCC3)c2)c1 [L 65-4, N-methyl-N-[5 (2-cyclohexylamino-4 pyridyl)-4 (3 methylphenyl)-1,3 thiazol-2-yl]nicotinamide]
35 | 176 to 177 °C | Cc1cccc(-c2nc(N(C)C(=O)c3ccc(C)nc3)sc2-c2ccnc(NC3CCCC3)c2)c1 [L 67-2, N-[5 (2 cyclopentylamino-4-pyridyl)-4 (3 methylphenyl)-1,3 thiazol-2 yl]-N, 6-dimethylnicotinamide]
36 | 99 to 101 °C | Cc1nc(-c2cccc(Cl)c2)c(-c2ccnc(NC(=O)Cc3ccccc3)c2)s1 [L 68-3, N-[4 [4 (3 chlorophenyl)-2-methyl-1,3 thiazol-5 yl]-2 pyridyl]phenylacetamide]
37 | 114 to 115 °C | Cc1cccc(-c2nc(C)sc2-c2ccnc(NC(=O)Cc3ccccc3)c2)c1 [L 68-5, N-[4 [2 methyl-4 (3-methylphenyl)-1,3 thiazol-5 yl]-2 pyridyl]phenylacetamide]
38 | 135 to 136 °C | Cc1cccc(-c2ncsc2-c2ccnc(NC(=O)Cc3ccccc3)c2)c1 [L 68-6, N-[4 [4 (3 methylphenyl)-1,3 thiazol-5 yl]-2 pyridyl]phenylacetamide]
39 | 178 to 179 °C | CCc1nc(-c2ccc(F)cc2)c(-c2ccnc(NC(=O)Cc3ccccc3)c2)s1 [L 68-7, N-[4 [2 ethyl-4 (4-fluorophenyl)-1,3 thiazol-5 yl]-2 pyridyl]phenylacetamide]
40 | 128 to 129 °C | CCc1nc(-c2ccc(C)cc2)c(-c2ccnc(NC(=O)Cc3ccccc3)c2)s1 [L 68-8, N-[4 [2 ethyl-4 (4-methylphenyl)-1,3 thiazol-5 yl]-2 pyridyl]phenylacetamide]
41 | 162 to 163 °C | CCc1nc(-c2ccccc2)c(-c2ccnc(NC(=O)Cc3ccccc3)c2)s1 [L 68-9, N-[4 (2 ethyl-4 phenyl-1,3-thiazol-5 yl)-2 pyridyl]phenylacetamide]
